Data on one compound can be found in patent US11974551B2, “L-serine compositions, methods and uses for treating neurodegenerative diseases and disorders” (priority 2011, dated 2024).

In assay [1] the test system is Drosophila fruit flies. In words: Fruit fly feeding: misincorporation of BMAA into proteins by LC/MS/MS. To be noted: media with 25 mM BMAA and 25 mM L-Serine vs 25 mM BMAA, three days of feeding. The class given is in vivo, Drosophila melanogaster. Here is the method:
Thirty flies were from each treatment were weighed and sonicated (Fisher Scientific sonic dismembrator model 100; 2 watts for 30 secs) in 10% trichloroacetic acid (TCA 72 μg/μl). TCA extraction was completed in two steps 20 h at 4° C. using one half the TCA volume followed by centrifugation ([…] for 3 min, Labnet Spectrafuge™ 16M microcentrifuge) and removal of supernatant. This was followed by a second sonication and extraction, 5 hours at room temperature using an equal volume of TCA, followed by centrifugation and removal of supernatant. The supernatants were pooled (with the exception of 50 μl removed from the last extraction) and centrifuge filtered (0.22 μm Ultrafree®-MC, Millipore). The remaining protein pellet was transferred to a glass vial and hydrolyzed in 6 M HCl for 16 hours at 110° C. (58 μg/μl). […] Extracts were diluted and derivatized with 6-aminoquinolyl-N-hydroxysuccinimidyl carbamate (AQC) and analyzed by LC-MS/MS.
6-Aminoquinolyl-N-hydroxysuccinimidyl carbamate derivates (AQC Waters AccQTag reagent, P/N WAT052880) were analyzed using a triple quadrupole instrument (Thermo Scientific Finnigan TSQ Quantum Ultra, San Jose, CA) after separation by a Waters Acquity-UHPLC system with a Binary Solvent Manager, Sample Manager and a Waters AccQTag Ultra column (part#186003837, 2.1×100 mm) at 55° C. […]

For assay [2], the system named is Drosophila fruit flies. In words: Fruit fly feeding: mortality after three days. In kind it is in vivo, Drosophila melanogaster. The note with it: media with 25 mM BMAA and 25 mM L-Serine, three days. Here is the method:
Preliminary studies show the ability of L-Serine to prevent misincorporation of BMAA into proteins. In a series of feeding experiments, Drosophila fruit flies were fed four different types of media: 1) standard fruit fly media with 0 mM BMAA (control), 2) media enriched with 25 mM L-Serine, 3) media with 25 mM BMAA added, and 4) media with both 25 mM BMAA and 25 mM L-Serine added for three days of feeding. Misincorporation of BMAA into proteins was then analyzed using triple quadrupole LC/MS/MS and Orbital Trap LC/MS/MS.
Equally interesting is the analysis of the protective value of L-Serine on Drosophila dosed with BMAA. Fruit flies fed with BMAA enriched media (third set of blocks) suffered a 40% mortality after three days, while flies fed with Serine plus BMAA (fourth set of blocks) had no mortality (FIG. 8). These flies were rescued by L-Serine.

The next assay has as its system MRC-5 cells. As to the kind of experiment: Autofluorescence imaging of cells. To be noted: BMAA 300 μM with L-serine 300 μM, 96 hours. In kind it is cell-based, human. Here is the method: MRC-5 cells were incubated in DMEM supplemented with 300 μM BMAA in the presence or absence of 300 μM L-serine for 96 hours with daily medium changes. Cellular autofluorescence was visualized using an inverted fluorescent microscope (Olympus IX71) as described previously (Dunlop, et al., Biochem J 410, 131-140 (2008)).

`N[C@@H](CO)C(=O)O` [L-serine]: the “effect on amount of BMAA misincorporation into proteins” value is recorded as “reduces BMAA incorporation into proteins” in the assay with Drosophila fruit flies [1] and “reduced by half” in the assay on Drosophila fruit flies [1] (listed as L-Serine). The “mortality of flies fed BMAA plus L-Serine” value is given as “blocks BMAA induced mortality” in the assay on Drosophila fruit flies [2] and “no mortality” in the assay on Drosophila fruit flies [2] (listed as L-Serine). Besides, the “effect on BMAA-induced formation of autofluorescent bodies” value in the assay on MRC-5 cells is given as “prevented the formation of autofluorescent bodies”.
